Like-named read-outs stand apart in the source and are kept apart here.
Key:
[1] = test system: wide-type HIV-1 (strain IIIB); experiment: Anti-HIV-1 activity in MT-4 cells (MTT method), wild-type; format: cell-based
Protocol: (§1) Selected compounds were screened for inhibitory activity against HIV-1 using MTT method as describe previously by Christophe. Pannecouque et al. Nat. Protoc. 3 (2008) 427-434, and Rudi Pauwels et al. J. Virol. Methods 20 (1988) 309-321. Briefly, MT-4 cells infected with HIV-1 can only survive for 5 to 7 days without any treatment, but when HIV-1 inhibitors were added, they can protect MT-4 cell from cytopathic. Serial solution of compounds was added to MT-4 cells after infected with HIV-1, MTT method was used to detect the survival rate after culture for 5 to 7 days. EC50 value was defined as compound concentration required to achieve 50% protection of MT-4 cells against HIV-1-induced cytopathic effect. In vitro anti-HIV-1 assay was supported by Rega Institute for Medical Research.
(§2) • (1) MT-4 cells infected with HIV-1 viral strains (IIIB, L100I, K103N, Y181C, Y188L, E138K, F227L/V106A, Y181C/K103N) were provided by Rega Institute for Medical Research, Katholieke Universiteit Leuven, Belgium. • (2) MTT and formazan: sigma Chemical Co. • (3) Preparation of compounds: Stock solutions (10×final concentration) of test compounds is diluted with double distilled water for 5 folds and 5 concentrations of one compound are prepared. • (4) Reference drugs: Nevirapine (NVP), Efavirenz (EFV), Etravirine (ETV), Rilpivirine (RPV) and Azidothymidine (AZT). • (5) Method (MTT method): Serial five-fold dilutions of test compounds were added to cultured MT-4 cells infected with HIV-1, after 5 to 7 days, MTT was added and cultured for a few hours. Medium was removed and lysate was added followed by formazan, OD value was determined in 690 nm and 540 nm by microplate reader, and EC50 value was calculated. 2. Method
(§3) The MTT method was described briefly as follows: 96-well plastic microtiter trays were filled with 100 μL of complete medium. Subsequently, serial of tested compounds was added (25 μL) to two series of triplicate wells so as to allow simultaneous evaluation of their effects on HIV- and mock infected cells. 50 μL of 1×10^4 cells/mL MT-4 cells were added. After cultured for 5 days at 37° C. in humidified atmosphere in the presence of 5% CO2, MTT was added and cultured for another 2 h, then medium was removed and 100 μL isopropanol solution was added to lyse the cells. Formazan crystals were added and vibrated platform shaker for 10 min to solubilize the formazan crystals. Absorbances at 690 nm and 540 nm were read by using spectrophotometrically. EC50 was defined as the concentration achieving 50% protection from the cytopathic effect of the virus in infected cells.
(§4) Selected compounds prepared as described above were assayed in MT-4 cells infected with wide-type IIIB, L100I, K103N, Y181C, Y188L, E138K or double mutant RES056 (Y181C/K103N) and F227L/V106A HIV-1 strains. Nevirapine, Efavirenz, Etravirine, Rilpivirine and Azidothymidine were selected as reference drugs. The results were listed below as EC50 value (nM)

[2] = test system: HIV-1 L100I mutant strain; experiment: Anti-HIV-1 activity in MT-4 cells (MTT method), L100I; format: cell-based; details: Human immunodeficiency virus 1, MT4, read-out: EC50 (nM) L100I
Protocol: as §1, §2, §3, §4

[3] = test system: HIV-1 K103N mutant strain; experiment: Anti-HIV-1 activity in MT-4 cells (MTT method), K103N; format: cell-based; details: Human immunodeficiency virus 1, MT4, read-out: EC50 (nM) K103N
Protocol: as §1, §2, §3, §4

[4] = test system: HIV-1 Y181C mutant strain; experiment: Anti-HIV-1 activity in MT-4 cells (MTT method), Y181C; format: cell-based; details: Human immunodeficiency virus 1, MT4, read-out: EC50 (nM) Y181C
Protocol: as §1, §2, §3, §4

[5] = test system: HIV-1 Y188L mutant strain; experiment: Anti-HIV-1 activity in MT-4 cells (MTT method), Y188L; format: cell-based; details: Human immunodeficiency virus 1, MT4, read-out: EC50 (nM) Y188L
Protocol: as §1, §2, §3, §4

[6] = test system: HIV-1 E138K mutant strain; experiment: Anti-HIV-1 activity in MT-4 cells (MTT method), E138K; format: cell-based; details: Human immunodeficiency virus 1, MT4, read-out: EC50 (nM) E138K
Protocol: as §1, §2, §3, §4

[7] = test system: HIV-1 F227L/V106A double mutant strain; experiment: Anti-HIV-1 activity in MT-4 cells (MTT method), F227L/V106A; format: cell-based; details: Human immunodeficiency virus 1, MT4, read-out: EC50 (nM) F227L/V106A
Protocol: as §1, §2, §3, §4

[8] = test system: HIV-1 double mutant RES056 (Y181C/K103N); experiment: Anti-HIV-1 activity in MT-4 cells (MTT method), RES056; format: cell-based; details: Human immunodeficiency virus 1, MT4, read-out: EC50 (nM) Y181C/K103N
Protocol: as §1, §2, §3, §4

[9] = Human immunodeficiency virus 1, IIIB, MT4, read-out: EC50 (nM) wt

Compound: Cc1cc(C#N)cc(C)c1Oc1nc(Nc2ccc(C#N)cc2)nc2c1SCCC2 [IA-1-1, 4-((2-((4-cyanophenyl)amino)-7,8-dihydro-6H-thiopyrano[3,2-d]pyrimidin-4-yl)oxy)-3,5-dimethylbenzonitrile]
- EC50 [1, 9]: < 10 nM
- EC50 [2]: 10 to 100 nM
- EC50 [3]: < 10 nM
- EC50 [4]: 10 to 100 nM
- EC50 [5]: 10 to 100 nM
- EC50 [6]: 10 to 100 nM
- EC50 [7]: 10 to 100 nM
- EC50 [8]: 10 to 100 nM
- melting point: 253 to 254 °C

Compound: Cc1cc(C#N)cc(C)c1Oc1nc(Nc2ccc(C#N)cc2)nc2c1[S+]([O-])CCC2 (stereo not shown) [IA-1-3, 4-((2-((4-cyanophenyl)amino)-5-oxido-7,8-dihydro-6H-thiopyrano[3,2-d]pyrimidin-4-yl)oxy)-3,5-dimethylbenzonitrile]
- EC50 [1, 9]: < 10 nM
- EC50 [2]: > 100 nM
- EC50 [3]: 10 to 100 nM
- EC50 [4]: 10 to 100 nM
- EC50 [5]: 10 to 100 nM
- EC50 [6]: 10 to 100 nM
- EC50 [7]: > 100 nM
- EC50 [8]: > 100 nM
- melting point: 247 to 249 °C

Compound: Cc1cc(C#N)cc(C)c1Oc1nc(Nc2ccc(C#N)cc2)nc2c1S(=O)(=O)CCC2 [IA-1-4, 4-((2-((4-cyanophenyl)amino)-5,5-dioxido-7,8-dihydro-6H-thiopyrano[3,2-d]pyrimidin-4-yl)oxy)-3,5-dimethylbenzonitrile]
- EC50 [1, 9]: < 10 nM
- Activity against wide-type HIV-1, folds better than NVP ([1]; wide-type HIV-1, relative to NVP): 30 folds
- Activity against wide-type HIV-1 compared with RPV ([1]; wide-type HIV-1, relative to RPV): comparable
- EC50 [2]: 10 to 100 nM
- EC50 [3]: < 10 nM
- EC50 [4]: 10 to 100 nM
- EC50 [5]: 10 to 100 nM
- EC50 [6]: 10 to 100 nM
- EC50 [7]: 10 to 100 nM
- EC50 [8]: 10 to 100 nM
- melting point: 263 to 265 °C

Compound: Cc1cc(C#N)cc(C)c1Oc1nc(NC2CCN(Cc3ccc([N+](=O)[O-])cc3)CC2)nc2c1SCCC2 [IIA-1-12, 3,5-dimethyl-4-((2-((1-(4-nitrobenzyl)piperidin-4-yl)amino)-7,8-dihydro-6H-thiopyrano[3,2-d]pyrimidin-4-yl)oxy)benzonitrile]
- EC50 [1, 9]: < 10 nM
- EC50 [2]: > 100 nM
- EC50 [3]: 10 to 100 nM
- EC50 [4]: > 100 nM
- EC50 [5]: 10 to 100 nM
- EC50 [6]: 10 to 100 nM
- EC50 [7]: > 100 nM
- EC50 [8]: > 100 nM

Compound: Cc1cc(C#N)cc(C)c1Oc1nc(NC2CCN(Cc3ccc(N)cc3)CC2)nc2c1SCCC2 [IIA-1-13, 4-((2-((1-(4-aminobenzyl)piperidin-4-yl)amino)-7,8-dihydro-6H-thiopyrano[3,2-d]pyrimidin-4-yl)oxy)-3,5-dimethylbenzonitrile]
- EC50 [1, 9]: < 10 nM
- EC50 [2]: 10 to 100 nM
- EC50 [3]: < 10 nM
- EC50 [4]: 10 to 100 nM
- EC50 [5]: 10 to 100 nM
- EC50 [6]: 10 to 100 nM
- EC50 [7]: > 100 nM
- EC50 [8]: > 100 nM

Compound: Cc1cc(C#N)cc(C)c1Oc1nc(NC2CCN(Cc3ccc(NS(C)(=O)=O)cc3)CC2)nc2c1SCCC2 [IIA-1-14, N-(4-((4-((4-(4-cyano-2,6-dimethylphenoxy)-7,8-dihydro-6H-thiopyrano[3,2-d]pyrimidin-2-yl)amino)piperidin-1-yl)methyl)phenyl) methanesulfonamide]
- EC50 [1, 9]: < 10 nM
- EC50 [2]: 10 to 100 nM
- EC50 [3]: < 10 nM
- EC50 [4]: < 10 nM
- EC50 [5]: 10 to 100 nM
- EC50 [6]: < 10 nM
- EC50 [7]: > 100 nM
- EC50 [8]: > 100 nM

Compound: Cc1cc(C#N)cc(C)c1Oc1nc(NC2CCN(c3cccc(C#N)c3)CC2)nc2c1SCCC2 [IIC-1-1, 4-((2-((1-(3-cyanophenyl)piperidin-4-yl)amino)-7,8-dihydro-6H-thiopyrano[3,2-d]pyrimidin-4-yl)oxy)-3,5-dimethylbenzonitrile]
- EC50 [1, 9]: 10 to 100 nM
- EC50 [2]: > 100 nM
- EC50 [3]: 10 to 100 nM
- EC50 [4]: > 100 nM
- EC50 [5]: > 100 nM
- EC50 [6]: > 100 nM
- EC50 [7]: > 100 nM
- EC50 [8]: > 100 nM

Compound: Cc1cc(C#N)cc(C)c1Oc1nc(NC2CCN(c3cccc(C(N)=O)c3)CC2)nc2c1SCCC2 [IIC-1-2, 3-(4-((4-(4-cyano-2,6-dimethylphenoxy)-7,8-dihydro-6H-thiopyrano[3,2-d]pyrimidin-2-yl)amino)piperidin-1-yl)benzamide]
- EC50 [1, 9]: < 10 nM
- EC50 [2]: 10 to 100 nM
- EC50 [3]: < 10 nM
- EC50 [4]: < 10 nM
- EC50 [5]: < 10 nM
- EC50 [6]: 10 to 100 nM
- EC50 [7]: > 100 nM
- EC50 [8]: 10 to 100 nM

Compound: Cc1ccnc2c1NC(=O)c1cccnc1N2C1CC1 [NVP, Nevirapine, reference compound]
- EC50 ([1]; Human immunodeficiency virus 1, MT4, MT-4 cells, 50% protection against HIV-1-induced cytopathicity, wt (IIIB), read-out: EC50 (nM) wt): > 100 nM
- EC50 [2]: > 100 nM
- EC50 [3]: > 100 nM
- EC50 [4]: > 100 nM
- EC50 [5]: > 100 nM
- EC50 [6]: > 100 nM
- EC50 [7]: > 100 nM
- EC50 [8]: > 100 nM

Compound: Cc1cc(/C=C/C#N)cc(C)c1Nc1ccnc(Nc2ccc(C#N)cc2)n1 [RPV, Rilpivirine, reference compound]
- EC50 [1, 9]: < 10 nM
- EC50 [2]: < 10 nM
- EC50 [3]: < 10 nM
- EC50 [4]: < 10 nM
- EC50 [5]: 10 to 100 nM
- EC50 [6]: < 10 nM
- EC50 [7]: 10 to 100 nM
- EC50 [8]: 10 to 100 nM

— US10590145B2, “Tetrahydrothiopyranopyrimidine derivatives as anti-HIV agent” (SHANDONG UNIVERSITY, priority 2016, dated 2020)
